According to article PMC9963398, “Discovery of New Quinolone-Based Diarylamides as Potent B-RAF^V600E/C-RAF Kinase Inhibitors Endowed with Promising In Vitro Anticancer Activity” (International Journal of Molecular Sciences, 2023):

Experiments:
B-RAF^V600E = biological target: T1, B-RAF^V600E (Homo sapiens, UniProt P15056, V600E); experiment: HotSpot kinase assay (RBC), B-RAF^V600E; format: biochemical; settings: 10 µM ATP, 10-dose singlicate IC50 mode
T1 construct: purchased Reaction Biology Corporation (RBC), Kinase HotSpot service

786-0 = experiment: NCI-60 five-dose SRB assay; format: cell-based; settings: Homo sapiens; 786-0, Renal cancer, five-dose test
Method: (§1) The anticancer screening of target compounds over a full panel of 60 human cancer cell lines was carried out using Sulforhodamine B (SRB) assay at the National Cancer Institute (NCI), Bethesda, Maryland, USA, employing the standard protocol.

A498 = experiment: NCI-60 five-dose SRB assay; format: cell-based; settings: Homo sapiens; A498, Renal cancer, five-dose test
Method: as §1

BT-549 = experiment: NCI-60 five-dose SRB assay; format: cell-based; settings: Homo sapiens; BT-549, Breast cancer, five-dose test
Method: as §1

CAKI-1 = experiment: NCI-60 five-dose SRB assay; format: cell-based; settings: Homo sapiens; CAKI-1, Renal cancer, five-dose test
Method: as §1

CCRF-CEM = experiment: NCI-60 five-dose SRB assay; format: cell-based; settings: Homo sapiens, Leukemia, five-dose test
Method: as §1

COLO 205 = experiment: NCI-60 five-dose SRB assay; format: cell-based; settings: Homo sapiens; COLO 205, Colon cancer, five-dose test
Method: as §1

DU-145 = experiment: NCI-60 five-dose SRB assay; format: cell-based; settings: Homo sapiens; DU-145, Prostate cancer, five-dose test
Method: as §1

EKVX = experiment: NCI-60 five-dose SRB assay; format: cell-based; settings: Homo sapiens, NSCL cancer, five-dose test
Method: as §1

HCC-2998 = experiment: NCI-60 five-dose SRB assay; format: cell-based; settings: Homo sapiens; HCC-2998, Colon cancer, five-dose test
Method: as §1

HCT-116 = experiment: NCI-60 five-dose SRB assay; format: cell-based; settings: Homo sapiens; HCT-116, Colon cancer, five-dose test
Method: as §1

HCT-15 = experiment: NCI-60 five-dose SRB assay; format: cell-based; settings: Homo sapiens; HCT-15, Colon cancer, five-dose test
Method: as §1

HOP-92 = experiment: NCI-60 five-dose SRB assay; format: cell-based; settings: Homo sapiens; HOP-92, NSCL cancer, five-dose test
Method: as §1

HS 578T = experiment: NCI-60 five-dose SRB assay; format: cell-based; settings: Homo sapiens, Breast cancer, five-dose test
Method: as §1

HT29 = experiment: NCI-60 five-dose SRB assay; format: cell-based; settings: Homo sapiens, HT-29; HT29, Colon cancer, five-dose test
Method: as §1

IGROV1 = experiment: NCI-60 five-dose SRB assay; format: cell-based; settings: Homo sapiens, IGROV-1; IGROV1, Ovarian cancer, five-dose test
Method: as §1

LOX IMVI = experiment: NCI-60 five-dose SRB assay; format: cell-based; settings: Homo sapiens, Melanoma, five-dose test
Method: as §1

MALME-3M = experiment: NCI-60 five-dose SRB assay; format: cell-based; settings: Homo sapiens, Melanoma, five-dose test
Method: as §1

MCF7 = experiment: NCI-60 five-dose SRB assay; format: cell-based; settings: Homo sapiens; MCF7, Breast cancer, five-dose test
Method: as §1

MDA-MB-435 = experiment: NCI-60 five-dose SRB assay; format: cell-based; settings: Homo sapiens; MDA-MB-435, Melanoma, five-dose test
Method: as §1

MOLT-4 = experiment: NCI-60 five-dose SRB assay; format: cell-based; settings: Homo sapiens; MOLT-4, Leukemia, five-dose test
Method: as §1

NCI-H23 = experiment: NCI-60 five-dose SRB assay; format: cell-based; settings: Homo sapiens; NCI-H23, NSCL cancer, five-dose test
Method: as §1

NCI-H322M = experiment: NCI-60 five-dose SRB assay; format: cell-based; settings: Homo sapiens, NSCL cancer, five-dose test
Method: as §1

NCI-H460 = experiment: NCI-60 five-dose SRB assay; format: cell-based; settings: Homo sapiens; NCI-H460, NSCL cancer, five-dose test
Method: as §1

NCI-H522 = experiment: NCI-60 five-dose SRB assay; format: cell-based; settings: Homo sapiens; NCI-H522, NSCL cancer, five-dose test
Method: as §1

OVCAR-3 = experiment: NCI-60 five-dose SRB assay; format: cell-based; settings: Homo sapiens; OVCAR-3, Ovarian cancer, five-dose test
Method: as §1

OVCAR-5 = experiment: NCI-60 five-dose SRB assay; format: cell-based; settings: Homo sapiens; OVCAR-5, Ovarian cancer, five-dose test
Method: as §1

OVCAR-8 = experiment: NCI-60 five-dose SRB assay; format: cell-based; settings: Homo sapiens; OVCAR-8, Ovarian cancer, five-dose test
Method: as §1

RXF 393 = experiment: NCI-60 five-dose SRB assay; format: cell-based; settings: Homo sapiens; RXF 393, Renal cancer, five-dose test
Method: as §1

SF-295 = experiment: NCI-60 five-dose SRB assay; format: cell-based; settings: Homo sapiens; SF-295, CNS cancer, five-dose test
Method: as §1

SF-539 = experiment: NCI-60 five-dose SRB assay; format: cell-based; settings: Homo sapiens; SF-539, CNS cancer, five-dose test
Method: as §1

SK-MEL-28 = experiment: NCI-60 five-dose SRB assay; format: cell-based; settings: Homo sapiens; SK-MEL-28, Melanoma, five-dose test
Method: as §1

SK-MEL-2 = experiment: NCI-60 five-dose SRB assay; format: cell-based; settings: Homo sapiens; SK-MEL-2, Melanoma, five-dose test
Method: as §1

SK-MEL-5 = experiment: NCI-60 five-dose SRB assay; format: cell-based; settings: Homo sapiens; SK-MEL-5, Melanoma, five-dose test
Method: as §1

SNB-19 = experiment: NCI-60 five-dose SRB assay; format: cell-based; settings: Homo sapiens; SNB-19, CNS cancer, five-dose test
Method: as §1

SNB-75 = experiment: NCI-60 five-dose SRB assay; format: cell-based; settings: Homo sapiens; SNB-75, CNS cancer, five-dose test
Method: as §1

UO-31 = experiment: NCI-60 five-dose SRB assay; format: cell-based; settings: Homo sapiens; UO-31, Renal cancer, five-dose test
Method: as §1

MDA-MB-231/ATCC = experiment: cells; settings: Homo sapiens
Method: as §1

MDA-MB-468 = experiment: cells; settings: Homo sapiens
Method: as §1

PC-3 = experiment: cells; settings: Homo sapiens
Method: as §1

C-RAF = C-RAF (Homo sapiens, UniProt P04049); experiment: HotSpot kinase assay (RBC), C-RAF; settings: IC50 C-RAF, 10 µM ATP, 10-dose singlicate IC50 mode
C-RAF, sequence (P04049 whole entry): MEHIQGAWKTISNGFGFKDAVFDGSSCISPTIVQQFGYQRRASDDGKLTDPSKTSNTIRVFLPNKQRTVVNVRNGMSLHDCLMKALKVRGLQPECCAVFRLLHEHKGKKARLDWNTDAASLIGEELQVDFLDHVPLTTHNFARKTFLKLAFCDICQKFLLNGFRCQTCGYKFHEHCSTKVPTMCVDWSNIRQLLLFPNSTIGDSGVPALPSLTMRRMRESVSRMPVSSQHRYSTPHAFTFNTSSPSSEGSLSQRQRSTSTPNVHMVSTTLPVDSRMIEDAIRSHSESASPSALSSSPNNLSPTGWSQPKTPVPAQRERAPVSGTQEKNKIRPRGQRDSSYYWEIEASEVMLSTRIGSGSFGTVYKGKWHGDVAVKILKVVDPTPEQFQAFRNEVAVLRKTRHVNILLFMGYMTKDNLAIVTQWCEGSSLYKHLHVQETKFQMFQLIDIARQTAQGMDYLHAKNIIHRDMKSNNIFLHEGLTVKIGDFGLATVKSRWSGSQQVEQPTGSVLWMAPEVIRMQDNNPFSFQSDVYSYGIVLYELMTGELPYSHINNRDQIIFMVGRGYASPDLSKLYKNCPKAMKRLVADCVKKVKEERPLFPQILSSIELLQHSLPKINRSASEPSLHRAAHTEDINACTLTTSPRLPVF
Text: Reaction Biology Corporation (RBC) Kinase HotSpotSM service was utilized for cell-free biochemical kinase evaluation of the target compounds according to the reported assay protocol [46].

T1 sequence (P15056 whole entry V600E): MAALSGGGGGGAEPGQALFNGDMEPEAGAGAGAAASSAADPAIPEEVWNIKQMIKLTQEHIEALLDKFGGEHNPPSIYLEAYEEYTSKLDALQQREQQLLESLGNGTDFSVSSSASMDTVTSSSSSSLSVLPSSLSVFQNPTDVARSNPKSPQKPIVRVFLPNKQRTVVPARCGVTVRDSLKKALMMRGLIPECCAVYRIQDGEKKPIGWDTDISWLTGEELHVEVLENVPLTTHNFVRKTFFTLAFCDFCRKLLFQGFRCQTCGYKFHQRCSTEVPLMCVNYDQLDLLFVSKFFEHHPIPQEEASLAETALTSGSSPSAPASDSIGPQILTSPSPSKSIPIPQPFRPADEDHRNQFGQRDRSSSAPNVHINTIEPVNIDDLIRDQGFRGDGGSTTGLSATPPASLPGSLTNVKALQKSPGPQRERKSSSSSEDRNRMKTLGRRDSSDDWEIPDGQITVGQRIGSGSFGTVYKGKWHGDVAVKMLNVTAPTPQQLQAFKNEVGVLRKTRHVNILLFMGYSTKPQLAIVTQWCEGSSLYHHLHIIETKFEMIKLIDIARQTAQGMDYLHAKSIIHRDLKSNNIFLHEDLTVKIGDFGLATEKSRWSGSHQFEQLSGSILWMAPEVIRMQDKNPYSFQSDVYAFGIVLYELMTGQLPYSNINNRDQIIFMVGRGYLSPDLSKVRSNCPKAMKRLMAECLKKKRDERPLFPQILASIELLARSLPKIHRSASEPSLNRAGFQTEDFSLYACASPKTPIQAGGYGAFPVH

## CCN1CCN(Cc2ccc(C(=O)Nc3cccc(Nc4ccc5c(OC)cccc5n4)c3)cc2C(F)(F)F)CC1 [Compound 14c, 4-((4-ethylpiperazin-1-yl)methyl)-N-(3-((5-methoxyquinolin-2-yl)amino)phenyl)-3-(trifluoromethyl)benzamide]
B-RAF^V600E
  IC50: 0.619 ± 0.0027 µM
786-0
  GI50: 1.41 µM
A498
  GI50: 11.8 µM
BT-549
  GI50: 5.35 µM
CAKI-1
  GI50: 1.46 µM
CCRF-CEM
  GI50: 1.97 µM
COLO 205
  GI50: 1.74 µM
DU-145
  GI50: 2.55 µM
EKVX
  GI50: 4.06 µM
HCC-2998
  GI50: 1.59 µM
HCT-116
  GI50: 1.45 µM
HCT-15
  GI50: 1.58 µM
HOP-92
  GI50: 1.58 µM
HS 578T
  GI50: 1.96 µM
HT29
  GI50: 1.76 µM
IGROV1
  GI50: 3.09 µM
LOX IMVI
  GI50: 1.45 µM
MALME-3M
  GI50: 1.44 µM
MCF7
  GI50: 1.5 µM
MDA-MB-435
  GI50: 1.36 µM
MOLT-4
  GI50: 1.23 µM
NCI-H23
  GI50: 2.37 µM
NCI-H322M
  GI50: 3.5 µM
NCI-H460
  GI50: 1.47 µM
NCI-H522
  GI50: 1.7 µM
OVCAR-3
  GI50: 1.8 µM
OVCAR-5
  GI50: 3.28 µM
OVCAR-8
  GI50: 6.78 µM
RXF 393
  GI50: 1.63 µM
SF-295
  GI50: 1.52 µM
SF-539
  GI50: 1.37 µM
SK-MEL-28
  GI50: 1.56 µM
SK-MEL-2
  GI50: 10.7 µM
SK-MEL-5
  GI50: 1.45 µM
SNB-19
  GI50: 1.65 µM
SNB-75
  GI50: 1.2 µM
UO-31
  GI50: 2.33 µM
MDA-MB-231/ATCC
  GI50: 1.54 µM
MDA-MB-468
  GI50: 1.6 µM
PC-3
  GI50: 2.14 µM
C-RAF
  IC50: 0.182 ± 0.0152 µM

## CN1CCCN(Cc2ccc(C(=O)Nc3cccc(Nc4ccc5cc(O)ccc5n4)c3)cc2C(F)(F)F)CC1 [Compound 18b, N-(3-((6-hydroxyquinolin-2-yl)amino)phenyl)-4-((4-methyl-1,4-diazepan-1-yl)methyl)-3-(trifluoromethyl)benzamide]
B-RAF^V600E
  IC50: 0.227 ± 0.00355 µM
786-0
  GI50: 16 µM
A498
  GI50: 17.6 µM
CAKI-1
  GI50: 14.1 µM
CCRF-CEM
  GI50: 4.94 µM
COLO 205
  GI50: 18.5 µM
DU-145
  GI50: 16.9 µM
EKVX
  GI50: 16 µM
HCC-2998
  GI50: 16.5 µM
HCT-116
  GI50: 6.51 µM
HCT-15
  GI50: 16.4 µM
HOP-92
  GI50: 10.4 µM
HS 578T
  GI50: 14.8 µM
HT29
  GI50: 13.3 µM
IGROV1
  GI50: 17.2 µM
LOX IMVI
  GI50: 12.1 µM
MALME-3M
  GI50: 12.6 µM
MCF7
  GI50: 9.83 µM
MDA-MB-435
  GI50: 10.4 µM
MOLT-4
  GI50: 2.05 µM
NCI-H23
  GI50: 16.8 µM
NCI-H322M
  GI50: 16.2 µM
NCI-H460
  GI50: 18 µM
NCI-H522
  GI50: 17 µM
OVCAR-3
  GI50: 16.3 µM
OVCAR-5
  GI50: 15.3 µM
OVCAR-8
  GI50: 18.9 µM
RXF 393
  GI50: 12.5 µM
SF-295
  GI50: 17.3 µM
SF-539
  GI50: 11.3 µM
SK-MEL-28
  GI50: 13.9 µM
SK-MEL-2
  GI50: 17.2 µM
SK-MEL-5
  GI50: 16.1 µM
SNB-19
  GI50: 17 µM
SNB-75
  GI50: 1.17 µM
UO-31
  GI50: 15.2 µM
MDA-MB-231/ATCC
  GI50: 13.9 µM
MDA-MB-468
  GI50: 8.88 µM
PC-3
  GI50: 13.1 µM
C-RAF
  IC50: 0.161 ± 0.0301 µM
